Reference: EPA's ToxRefDB 2

How the values were obtained:
guinea-pig = details: Subchronic dermal toxicity, hartley, Topical, dose end: 13 week, group: systemic, systemic / clinical chemistry / creatine phosphokinase / creatine phosphokinase + systemic / clinical chemistry / lactic acid dehydrogenase…
mouse = details: Subchronic oral toxicity in rodents, b6c3f1, Water, dose end: 13 week
rat [1] = details: Developmental neurotoxicity study, sprague dawley, Oral, Feed, dose end: 63 PND, group: cannot be grouped
rat [2] = details: Prenatal developmental toxicity study, sprague dawley, Inhalation, Whole-Body, dose end: 15 GD
rat [3] = details: Subchronic oral toxicity in rodents, fischer, Water, dose end: 13 week
[4] = group: maternal, reproductive / reproductive performance / estrous cycle / abnormal
[5] = group: systemic, systemic / organ weight / testes / absolute + systemic / organ weight / testes / relative to body weight + systemic / pathology gross / …
[6] = group: systemic, systemic / pathology gross / sperm measure / sperm count + systemic / pathology gross / sperm measure / sperm motility
[7] = reproductive / reproductive performance / resorptions / resorptions + systemic / in life observation / body weight / body weight gain + …
[8] = systemic / in life observation / body weight / fetal weight
[9] = group: developmental, developmental / developmental malformation / bone / short + developmental / developmental malformation / bone / wavy + developmental / …
[10] = group: developmental, developmental / developmental malformation / bone / wavy + developmental / developmental malformation / brain / dilated cerebral ventricle…
[11] = group: maternal, reproductive / reproductive performance / resorptions / resorptions
[12] = group: systemic, systemic / organ weight / thymus / absolute + systemic / organ weight / thymus / relative to body weight

## COCCO [2-Methoxyethanol]
guinea-pig
  LEL: 1000 mg/kg/day
  LOAEL: > 1000 mg/kg/day
  NEL: < 1000 mg/kg/day
  NOAEL: ≥ 1000 mg/kg/day
mouse; [4]
  LEL: 492 mg/kg/day
  LOAEL: > 1840 mg/kg/day
  NEL: < 492 mg/kg/day
  NOAEL: ≥ 1840 mg/kg/day
mouse; [5]
  LOAEL: 529 mg/kg/day
  NOAEL: 295 mg/kg/day
mouse; [6]
  LEL: 295 mg/kg/day
  NEL: < 295 mg/kg/day
Rat [1]; [7]
  LOAEL: > 620 mg/kg/day
  NOAEL: ≥ 620 mg/kg/day
Rat [1]; [8]
  LEL: 16 mg/kg/day
  NEL: < 16 mg/kg/day
Rat [2]; [9]
  LOAEL: > 200 ppm
  NOAEL: ≥ 200 ppm
Rat [2]; [10]
  LEL: 50 ppm
  NEL: < 50 ppm
Rat [2]; [11]
  LEL: 50 ppm
  LOAEL: > 200 ppm
  NEL: < 50 ppm
  NOAEL: ≥ 200 ppm
Rat [3]; [4]
  LEL: 135 mg/kg/day
  LOAEL: > 785 mg/kg/day
  NEL: 70 mg/kg/day
  NOAEL: ≥ 785 mg/kg/day
Rat [3]; group: systemic, systemic / in life observation / body weight / body weight + systemic / pathology microscopic / spleen / fibrosis
  LOAEL: 135 mg/kg/day
Rat [3]; group: systemic, systemic / in life observation / body weight / body weight + systemic / pathology microscopic / spleen / fibrosis + systemic / clinical …
  NOAEL: 70 mg/kg/day
Rat [3]; [12]
  LEL: 70 mg/kg/day
  NEL: < 70 mg/kg/day
